The subject of one series is C57BL/6J mice. The note with it: ref Mineur et al. [2009], cited from earlier work; for latency to eat in NSF: 14 days repeat treatment, C57BL/6J mice, [2011].
In the next series the test system is LS and HS α4β2-nAChR. More on the design: method as in Mineur et al. [2009]. As to conditions: relative to that of ACh; ref Mineur et al. [2009]; cited from earlier work.
Another series has as its target α3β4* nAChR. Also noted: method as in Mineur et al. ([2009]). As to conditions: Figure 1; ref Mineur et al. ([2009]); cited from earlier work.
The next series deals with α7* nAChR. As to conditions: Figure 1, cited from earlier work.
A further series concerns the target α4β2* nAChR. The note with it: Figure 1, cited from earlier work.
A further series concerns Male C57 BL6 mice. The experiment in a line: SmartCube test. In kind it is in vivo, mouse. As to conditions: for SmartCube behavioral signature: both tested doses, 15 min preinjection. How it is done:
Male C57 BL6 mice (Taconic Farms) were used in the SmartCube® assay (PsychoGenics Inc., Tarrytown, NY). Mice were received at 7 weeks old and group-housed in OptiMICE ventilated cages with four mice/cage. Mice were acclimated to the colony room for at least 1 week prior to the first injections. All animals were tested in SmartCube® at 8 10 weeks old.
To acquire initial in vivo evaluation of our nicotinic ligands for behavioral effects relevant to psychiatric diseases, we used SmartCube®, an automated system in which mouse behavior is captured by digital video using novel, proprietary hardware that presents multiple challenges in a single test session and is analyzed with computer algorithms. Digital videos of the subjects are processed with computer vision algorithms to extract more than 1400 dependent measures including frequency and duration of behavioral states such as grooming, rearing, etc., and many other features obtained during the test session. Using machine learning techniques chosen to best separate pharmacological effects of reference compounds, the behavioral signatures of the mutant mice are then assessed quantitatively.
The most dominant of the features collected that define the drug class signature are identified and ranked using complex proprietary bioinformatics algorithms. The outcome of a SmartCube® run is a set of more than 1400 features (behavioral parameters) that can be used for various analyses. Many of these features are correlated (e.g., rearing counts and supported rearing counts). Therefore, we form statistically independent combinations of the original features (further referred to as decorrelated features) that discriminate between the groups more effectively. Next, we apply a proprietary feature ranking algorithm to score each feature discrimination power to weight each feature change by its relevance. The data obtained in this way are used to define drug signatures for known reference compounds and to establish therapeutic class signatures against which a test sample can be compared. The neuropharmacological effects of a test compound can be predicted by similarity to major classes of compounds, such as antipsychotics, anxiolytics, and antidepressants (Roberds et al. [2011]).
Mice are taken in their home cage to the SmartCube® suite of experimental rooms where they remain until they are placed in the apparatus for a single testing session. A standard SmartCube® protocol runs for a single session (∼45 min). After the session mice are group-housed again and brought back to the colony room. Any abnormal behavior is noted. […] At least 12 mice were used in each treatment group.

The next series has as its system mice. The note with it: ref Mineur et al. [2009]; cited from earlier work.
The next series addresses α3β4 nAChR. The note with it: Figure 1, cited from earlier work.
A further series addresses α4β2 nAChR. The note with it: Figure 1, cited from earlier work.
Series [1] deals with BALB/cJ and C57BL/6J mice. The note with it: 28 days oral administration; ref Vieyra-Reyes et al. [2008]; cited from earlier work.
In the next series the target is T1, human α3β4*-nAChR (Homo sapiens, UniProt P30926+P32297).
T1 construct: SH-SY5Y naturally expresses autonomic α3β4*-nAChRs; endogenous in cells; host or cells: SH-SY5Y human neuroblastoma cells
As to the kind of experiment: 86Rb+ ion efflux assay, SH-SY5Y cells. The note with it: 86Rb+ efflux. In kind it is cell-based. The source says: (§1) Cell lines naturally or heterologously expressing specific, functional, human nAChR subtypes were used. The human clonal cell line TE671/RD naturally expresses human muscle-type α1*-nAChRs, containing α1, β1, γ, and δ subunits, with function detectable using ^86Rb^+ efflux assays. […] These cells heterologously express human nAChR chimeric (α6/3) subunits (wherein the extracellular, N-terminal, ligand-binding domain of the human nAChR α6 subunit replaces that domain in the nAChR α3 subunit) along with human β2 and β3 subunits. […] Cells were passaged once a week by splitting just-confluent cultures 1/300 (TE671/RD), 1/10 (SH-SY5Y), or 1/40 (transfected SH-EP1) in serum-supplemented medium to maintain log-phase growth.
(§2) One newer modification on these techniques involves low temperature incubation before assays to increase the surface expression of high sensitivity (HS) relative to low sensitivity (LS) α4β2 nAChRs and to enhance surface expression of (α6/3)β2β3-nAChRs. […] In brief, this allows us to determine efficacies of test compounds at LS and HS α4β2 nAChRs, respectively, as the ordinate values of the linear regressions at abscissa values of 0% and 100% of sazetidine-A efficacy.
(§3) Results are normalized to responses to a fully efficacious concentration of carbamylcholine (see Materials and Methods for details). […]

Series [2] concerns male 129SvJ;C57BL/6J F1 hybrid mice. Also noted: method as in Turner et al. ([2010]). As to conditions: chronic treatment; ref Turner et al. ([2010]); cited from earlier work.
The target in another series is α7 nAChR. The note with it: ref Rollema et al. [2010]; read-out: Ki α7; cited from earlier work.
For the next series, the target named is T2, human α4β2-nAChR (Homo sapiens, UniProt P17787+P43681).
T2 construct: expressed in transfected cells; host or cells: SH-EP1 human epithelial cells (SH-EP1-hα4β2)
The experiment in a line: 86Rb+ ion efflux assay, SH-EP1-hα4β2 cells. Format: cell-based. As to conditions: normalized to a full antagonist.
Source text: as §1, §2, §3

For the next series, the target named is α4β4 nAChR. As to conditions: ref Rollema et al. [2010]; cited from earlier work.
For series [3], the target named is T3, LS (low sensitivity) α4β2-nAChRs (Homo sapiens, UniProt P17787+P43681).
T3 construct: expressed in transfected cells; host or cells: SH-EP1 human epithelial cells (SH-EP1-hα4β2)
The experiment in a line: 86Rb+ ion efflux assay, LS α4β2 efficacy by regression on sazetidine-A efficacy. The note with it: relative to carbamylcholine. Format: cell-based.
Source text: as §1, §2, §3

The target in series [4] is T4, HS (high sensitivity) α4β2-nAChRs (Homo sapiens, UniProt P17787+P43681).
T4 construct: expressed in transfected cells; host or cells: SH-EP1 human epithelial cells (SH-EP1-hα4β2)
The experiment in a line: 86Rb+ ion efflux assay, HS α4β2 efficacy by regression on sazetidine-A efficacy. The note with it: relative to carbamylcholine. In kind it is cell-based.
Source text: as §1, §2, §3

Another series addresses T5, human (α6/3)β2β3-nAChR (Homo sapiens, UniProt P17787+P32297+Q15825).
T5 construct: expressed in transfected cells; host or cells: SH-EP1 human epithelial cells (SH-EP1-h(α6/3)β2β3)
As to the kind of experiment: 86Rb+ ion efflux assay, SH-EP1-h(α6/3)β2β3 cells. In kind it is cell-based.
Source text: as §1, §2
Results are normalized to responses to a fully efficacious concentration of carbamylcholine (see Materials and Methods for details). […] The ordinate intercepts of the linear regressions at a sazetidine-A efficacy (abscissa) of 0% represent the efficacies at LS α4β2-nAChRs, while the ordinate intercepts at a sazetidine-A efficacy of 100% represent the efficacies at HS α4β2-nAChRs.

The next series concerns α4β2*-nAChR. Also noted: method as in Weber et al. [2013]. As to conditions: estimate at free concentration in brain; ref Weber et al. [2013]; cited from earlier work.

“Also recorded” adds a separate entry of the source. Like-named read-outs stand apart in the source and are kept apart here. Where only a bound is given, the exact number is not on record here.

T5 sequence (Q15825+P32297 fused with the stated changes): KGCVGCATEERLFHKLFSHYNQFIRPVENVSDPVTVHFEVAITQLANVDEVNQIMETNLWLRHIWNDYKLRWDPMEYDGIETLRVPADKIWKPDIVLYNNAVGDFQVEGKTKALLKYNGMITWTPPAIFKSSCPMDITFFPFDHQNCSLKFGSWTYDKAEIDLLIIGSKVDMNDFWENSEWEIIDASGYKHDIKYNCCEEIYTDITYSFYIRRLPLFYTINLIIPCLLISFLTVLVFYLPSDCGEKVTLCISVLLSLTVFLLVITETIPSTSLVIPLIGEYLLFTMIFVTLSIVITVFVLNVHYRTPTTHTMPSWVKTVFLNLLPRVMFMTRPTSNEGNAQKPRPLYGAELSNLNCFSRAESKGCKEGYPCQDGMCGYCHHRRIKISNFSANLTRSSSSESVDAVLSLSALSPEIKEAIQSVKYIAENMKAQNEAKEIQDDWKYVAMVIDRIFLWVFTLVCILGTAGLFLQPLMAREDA
T5 sequence (P17787 26-502): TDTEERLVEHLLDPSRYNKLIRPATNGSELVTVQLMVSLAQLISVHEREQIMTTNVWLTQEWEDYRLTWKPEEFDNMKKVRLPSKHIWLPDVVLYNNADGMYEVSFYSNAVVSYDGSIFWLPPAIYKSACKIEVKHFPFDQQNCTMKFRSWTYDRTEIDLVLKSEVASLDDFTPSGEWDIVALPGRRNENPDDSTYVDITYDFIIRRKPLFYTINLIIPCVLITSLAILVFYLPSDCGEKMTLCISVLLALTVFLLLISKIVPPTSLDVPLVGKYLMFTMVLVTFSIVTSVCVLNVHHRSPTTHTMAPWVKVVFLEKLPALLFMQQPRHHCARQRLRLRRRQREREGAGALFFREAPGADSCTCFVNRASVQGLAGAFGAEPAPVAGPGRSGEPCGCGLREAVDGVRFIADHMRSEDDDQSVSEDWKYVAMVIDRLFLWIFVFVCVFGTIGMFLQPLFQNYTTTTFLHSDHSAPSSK
T5 sequence (Q05901 25-458 partner limits assumed): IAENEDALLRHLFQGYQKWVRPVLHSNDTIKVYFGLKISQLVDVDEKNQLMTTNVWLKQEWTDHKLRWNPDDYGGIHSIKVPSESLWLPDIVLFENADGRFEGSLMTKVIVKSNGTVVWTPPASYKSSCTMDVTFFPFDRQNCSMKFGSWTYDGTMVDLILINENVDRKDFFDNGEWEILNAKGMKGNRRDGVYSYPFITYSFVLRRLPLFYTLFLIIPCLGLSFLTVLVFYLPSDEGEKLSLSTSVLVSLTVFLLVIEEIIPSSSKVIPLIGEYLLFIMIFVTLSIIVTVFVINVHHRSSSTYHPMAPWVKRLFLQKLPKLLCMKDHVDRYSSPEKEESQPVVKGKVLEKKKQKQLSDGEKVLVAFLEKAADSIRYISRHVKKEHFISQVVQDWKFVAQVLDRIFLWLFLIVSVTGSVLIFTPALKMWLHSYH
T1 sequence (P32297 32-505): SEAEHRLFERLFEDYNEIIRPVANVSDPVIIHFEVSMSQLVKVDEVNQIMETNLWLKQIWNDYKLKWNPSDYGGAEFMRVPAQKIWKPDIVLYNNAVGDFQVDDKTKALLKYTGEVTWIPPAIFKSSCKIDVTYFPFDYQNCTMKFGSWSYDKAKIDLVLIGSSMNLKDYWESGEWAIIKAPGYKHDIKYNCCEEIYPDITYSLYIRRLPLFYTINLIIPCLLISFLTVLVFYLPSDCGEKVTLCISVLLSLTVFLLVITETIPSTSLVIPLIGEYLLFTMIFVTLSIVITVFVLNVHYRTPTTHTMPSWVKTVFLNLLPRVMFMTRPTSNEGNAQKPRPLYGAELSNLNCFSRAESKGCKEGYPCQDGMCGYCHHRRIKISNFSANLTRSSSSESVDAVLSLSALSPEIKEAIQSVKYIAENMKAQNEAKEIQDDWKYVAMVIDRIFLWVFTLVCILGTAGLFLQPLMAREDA
T1 sequence (P30926 22-498): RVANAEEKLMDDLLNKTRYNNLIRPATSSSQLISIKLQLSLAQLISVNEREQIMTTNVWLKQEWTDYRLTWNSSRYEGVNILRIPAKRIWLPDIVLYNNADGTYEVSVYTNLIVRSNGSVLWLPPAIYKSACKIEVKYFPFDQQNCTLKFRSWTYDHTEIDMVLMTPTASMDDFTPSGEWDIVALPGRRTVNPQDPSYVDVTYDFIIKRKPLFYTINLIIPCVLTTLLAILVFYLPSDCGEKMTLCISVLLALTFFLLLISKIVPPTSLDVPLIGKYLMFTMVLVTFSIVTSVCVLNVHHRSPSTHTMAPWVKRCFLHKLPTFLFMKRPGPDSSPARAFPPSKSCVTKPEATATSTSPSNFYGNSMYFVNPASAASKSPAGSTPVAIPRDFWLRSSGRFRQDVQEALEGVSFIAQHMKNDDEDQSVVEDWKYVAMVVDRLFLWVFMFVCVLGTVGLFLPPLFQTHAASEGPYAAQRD
T4 sequence (P43681 29-627 limits assumed): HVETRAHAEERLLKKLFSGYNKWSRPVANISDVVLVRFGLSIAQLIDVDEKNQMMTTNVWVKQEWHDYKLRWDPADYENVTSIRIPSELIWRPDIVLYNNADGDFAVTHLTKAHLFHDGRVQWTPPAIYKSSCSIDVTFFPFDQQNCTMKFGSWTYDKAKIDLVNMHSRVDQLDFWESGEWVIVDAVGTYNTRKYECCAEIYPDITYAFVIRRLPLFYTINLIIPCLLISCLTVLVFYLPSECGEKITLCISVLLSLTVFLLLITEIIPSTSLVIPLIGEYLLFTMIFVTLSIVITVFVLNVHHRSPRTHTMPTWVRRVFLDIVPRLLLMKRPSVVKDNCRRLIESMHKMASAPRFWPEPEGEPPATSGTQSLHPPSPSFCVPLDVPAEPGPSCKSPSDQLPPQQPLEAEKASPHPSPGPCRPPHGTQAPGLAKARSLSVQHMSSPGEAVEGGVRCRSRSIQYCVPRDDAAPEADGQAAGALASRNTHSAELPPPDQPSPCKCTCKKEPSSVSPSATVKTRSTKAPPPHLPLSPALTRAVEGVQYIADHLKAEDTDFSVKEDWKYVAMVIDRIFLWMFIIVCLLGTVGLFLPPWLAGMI
T4 sequence (P17787 26-502): as the sequence (P17787 26-502) above
T2 sequence (P43681 29-627 limits assumed): as the sequence (P43681 29-627 limits assumed) above
T2 sequence (P17787 26-502): as the sequence (P17787 26-502) above
T3 sequence (P43681 29-627 limits assumed): as the sequence (P43681 29-627 limits assumed) above
T3 sequence (P17787 26-502): as the sequence (P17787 26-502) above

`O=c1c(-c2ccccn2)ccc2n1CC1CNCC2C1` (stereo not shown) [3-(2-pyridyl)cytisine]: in the series on C57BL/6J mice, the “latency to eat in NSF” value is on record as “decreased the latency to eat”. Further, in the series on C57BL/6J mice (lower dose only (0.3 vs. 0.6 mg/kg)), the “dose found effective in the NSF test” value was 0.3 mg/kg. Also, the “intrinsic efficacy at both LS and HS receptors” value in the series with LS and HS α4β2-nAChR is listed as “no more than 10%”. Further, the Ki (usually a dissociation constant, usually derived from enzyme kinetics or from competition with a known ligand) on α3β4* nAChR was 119 nM; at α7* nAChR (ref Mineur et al. ([2009])), 1100 nM; at α4β2* nAChR (ref Mineur et al. ([2009])), 0.91 nM.
For the compound `O=c1cccc2n1C[C@@H]1CNC[C@H]2C1` [(-)-cytisine], in the series on C57BL/6J mice, the “latency to eat in NSF” value is on record as “decreased the latency to eat”. In the series on LS and HS α4β2-nAChR, the “intrinsic efficacy at both LS and HS receptors” value is “no more than 10%”. Further, the “SmartCube antidepressant (green) component” value in the series with Male C57 BL6 mice (1.0 mg/kg, i.p.) is listed as “potential antidepressive-like behavior; also recorded: most pronounced”. In the series on Male C57 BL6 mice (0.5 and 1.0 mg/kg, i.p.), the SmartCube side effects result is “Minimal side effects; also recorded: no obvious side effects”. In addition, the SmartCube behavioral signature entry in the series on Male C57 BL6 mice (i.p.) is given as “robust CNS drug-like signatures”. Further, the “dose not tolerated by mice” value in the series with mice is on record as over 1.5 mg/kg. The results for the Ki at α7* nAChR (ref Rollema et al. ([2010])), on α3β4 nAChR (ref Rollema et al. ([2010])) and at α4β2 nAChR (ref Rollema et al. ([2010])) were 5890 nM, 480 nM and 2 nM, respectively.
With `FC(F)(F)c1ccc2c(c1)[C@H]1CNC[C@@H]2C1` [CP-601927], in the series with C57BL/6J mice, the “latency to eat in NSF” value is “increased the latency to eat”. Besides, the inhibition constant (Ki) is 102 nM on α3β4 nAChR (ref Mineur et al. ([2011])) and 1.2 nM at α4β2 nAChR (ref Mineur et al. ([2011])).
For the compound `CN1CCC[C@H]1c1cccnc1` [Nicotine], the “behavioral changes in NSF” value in series [1] was “failed to show significant behavioral changes”. Besides, the “Agonism α3β4*-nAChR Efficacy” value on human α3β4*-nAChR worked out at 90%.
Turning to `OCCCCC#Cc1cncc(OC[C@@H]2CCN2)c1` [Sazetidine-A], the “time needed to approach food, NIH paradigm” value in [2] is recorded as “decreased the time needed to approach food”. Besides, the values for the Ki on α3β4 nAChR (ref Xiao et al. ([2006])), on α4β2 nAChR (ref Xiao et al. ([2006])) and on α4β2* nAChR (ref Xiao et al. ([2006])) were 10000 nM, 0.4 nM and 0.9 nM, respectively.
With `c1cnc2cc3c(cc2n1)[C@@H]1CNC[C@H]3C1` [Varenicline], the Ki was 125 nM on α7 nAChR and 110 nM on α4β4 nAChR. For the same compound, on human α4β2-nAChR, the “Inactivation α4β2-nAChR Efficacy” value is recorded as 79 ± 3.3%. Further, in the series on C57BL/6J mice, the “latency to eat in NSF” value is listed as “did not show any effect”. Besides, in series [3], the “Agonism α4β2-nAChR LS Efficacy” value is reported as 34 ± 2.8%. The “time needed to approach food, NIH paradigm” value in series [2] is listed as “no effect”. At human α3β4*-nAChR, the “Agonism α3β4*-nAChR Efficacy” value is 110%. Moreover, the SmartCube antidepressant effects result in the series on Male C57 BL6 mice (1 mg/kg) is recorded as “weak antidepressant effects”. Also, in the series with Male C57 BL6 mice (1.0 mg/kg, i.p.), the SmartCube side effects result is listed as “Minimal side effects”. Besides, the “SmartCube side effect component, probability” value in the series on Male C57 BL6 mice (3.0 mg/kg, i.p.) is “about 30%”. Further, in the series with Male C57 BL6 mice (i.p.), the SmartCube behavioral signature entry is reported as “robust CNS drug-like signatures”. The “Agonism α4β2-nAChR HS Efficacy” value in series [4] is 105 ± 4.4%. For the same compound, at human (α6/3)β2β3-nAChR (86Rb+ efflux, read-out: Agonism (α6/3)β2β3-nAChR pEC50 (converted)), the EC50 was 17.8 nM. For the same compound, the “Agonism (α6/3)β2β3-nAChR Efficacy” value at human (α6/3)β2β3-nAChR (normalized to a full agonist) was 17 ± 0.5. Further, the “Inactivation (α6/3)β2β3-nAChR Efficacy” value at human (α6/3)β2β3-nAChR (normalized to a full antagonist) was 74 ± 2.6%.
On to `CNC1(C)C2CCC(C2)C1(C)C` (stereo not shown) [mecamylamine], for which the “block of α4β2*-nAChR function” value with α4β2*-nAChR is about 20%.

The values above are taken from PMC4184702 (Pharmacology Research & Perspectives, 2014).
